The supplement of paper PMC11061612

Legend:
Experiment in all cases: combination Emax (second highest fraction inhibited in the dose matrix, 72 h); higher = more inhibition; extreme values may be limits of the assay
[1] = system: NCI-H1703 (Squamous Cell Lung Carcinoma)
Procedure, shortened: (§1)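 Cell lines in DMEM/F12 or RPMI with 10% FBS were plated in 1536-well plates, held 24 hours at 37°C, 5% CO2, then given two-drug dose matrices for 72 hours (DMSO typically 0.2%). Viability was read by CellTiter-Glo 2.0 luminescence and scaled as inhibition from 0 (vehicle wells) to 1 (blank wells). Combination Emax is the second-highest inhibition in the matrix; Bliss excess is observed combination effect minus expected EA + EB − EA·EB, EA and EB being single-agent effects.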

[2] = system: EW-7 (Ewing's Sarcoma)
Procedure, shortened: as §1

[3] = system: UACC-812 (Breast Carcinoma)
Procedure, shortened: as §1

[4] = system: ESO26 (Esophageal Adenocarcinoma)
Procedure, shortened: as §1

[5] = system: GCT (Other Solid Carcinomas)
Procedure, shortened: as §1

[6] = system: DMS-53 (Small Cell Lung Carcinoma)
Procedure, shortened: as §1

[7] = system: MDA-MB-436 (Breast Carcinoma)
Procedure, shortened: as §1

[8] = system: AU565 (Breast Carcinoma)
Procedure, shortened: as §1

[9] = system: LS-411N (Colorectal Carcinoma)
Procedure, shortened: as §1

[10] = system: KP-N-YN (Neuroblastoma)
Procedure, shortened: as §1

[11] = system: KYSE-220 (Esophageal Squamous Cell Carcinoma)
Procedure, shortened: as §1

[12] = system: NCI-H2228 (Lung Adenocarcinoma)
Procedure, shortened: as §1

[13] = system: JHU-022 (Oral Cavity Carcinoma)
Procedure, shortened: as §1

[14] = system: GA-10 (Burkitt's Lymphoma)
Procedure, shortened: as §1

[15] = system: CESS (Acute Myeloid Leukemia)
Procedure, shortened: as §1

[16] = system: NCI-H716 (Colorectal Carcinoma)
Procedure, shortened: as §1

[17] = system: JHH-2 (Hepatocellular Carcinoma)
Procedure, shortened: as §1

[18] = system: JIMT-1 (Breast Carcinoma)
Procedure, shortened: as §1

[19] = system: HCC1395 (Breast Carcinoma)
Procedure, shortened: as §1

[20] = system: NCI-H2087 (Lung Adenocarcinoma)
Procedure, shortened: as §1

SMILES | combination Emax [1] | combination Emax [2] | combination Emax [3] | combination Emax [4] | combination Emax [5] | combination Emax [6] | combination Emax [7] | combination Emax [8] | combination Emax [9] | combination Emax [10] | combination Emax [11] | combination Emax [12] | combination Emax [13] | combination Emax [14] | combination Emax [15] | combination Emax [16] | combination Emax [17] | combination Emax [18] | combination Emax [19] | combination Emax [20]
Cn1cnc2c(F)c(Nc3ccc(Br)cc3Cl)c(C(=O)NOCCO)cc21 [Selumetinib] + C=CCn1c(=O)c2cnc(Nc3ccc(N4CCN(C)CC4)cc3)nc2n1-c1cccc(C(C)(C)O)n1 [AZD1775] (first compound max 10 µM, partner max 1 µM) | 0.944 | 0.806 | 0.138 | 0.678 | 0.384 | 0.247 | 0.311 | 0.644 | 0.794 | 0.936 | 0.664 | 0.453 | 0.529 | 1 | 0.944 | 0.428 | 0.536 | 0.6 | 0.425 | 0.559
COc1nnc2ccc(N3CCC(c4ccc(OCCN5CCN(C)C(=O)[C@H]5C)cc4)CC3)nn12 [AZD5153] + C[C@@H]1COCCN1C2=NC(=NC(=C2)C3(CC3)[S@](=N)(=O)C)C4=C5C=CNC5=NC=C4 [AZD6738] (first compound max 1 µM, 7x7, partner max 10 µM) | 0.973 | 0.961 | 0.479 | 0.84 | 0.6 | 0.58 | 0.332 | 0.502 | 0.947 | 0.955 | 0.863 | 0.594 | 0.563 | 0.962 | 0.905 | 0.702 | 0.711 | 0.77 | 0.671 | 0.728
Cc1c2c(nn1C)CSCc1cc(n(C)n1)CSc1cc(c3ccccc3c1)OCCCc1c(C(=O)O)n(C)c3c-2c(Cl)ccc13 [AZD5991] + C[C@@H](Nc1cc(F)cc(F)c1)c1cc(C(=O)N(C)C)cc2c(=O)cc(N3CCOCC3)oc12 [AZD8186] (first compound max 1 µM, 7x7, partner max 3 µM) | 0.87 | 0.3 | 0.649 | 0.284 | 0.454 | 0.398 | 0.358 | 1 | 0.178 | 0.171 | 0.177 | 0.321 | 0.398 | 0.869 | 0.554 | 0.265 | 0.768 | 0.304 | 0.736 | 0.167
CC(=O)Nc1cccc(-n2c(=O)n(C3CC3)c(=O)c3c(Nc4ccc(I)cc4F)n(C)c(=O)c(C)c32)c1 [Trametinib] + Cc1nc(-c2cn3c(n2)-c2ccc(-c4cnn(C(C)(C)C(N)=O)c4)cc2OCC3)n(C(C)C)n1 [Taselisib] (first compound max 1 µM, 7x7, partner max 10 µM) | 0.759 | 1 | 0.461 | 0.746 | 0.764 | 0.294 | 0.527 | 0.604 | 0.946 | 0.528 | 0.958 | 0.914 | 0.903 | 0.682 | 0.66 | 0.977 | 1 | 0.631 | 0.654 | 0.639
Cc1c2c(nn1C)CSCc1cc(n(C)n1)CSc1cc(c3ccccc3c1)OCCCc1c(C(=O)O)n(C)c3c-2c(Cl)ccc13 [AZD5991] + Cn1cnc2c(F)c(Nc3ccc(Br)cc3Cl)c(C(=O)NOCCO)cc21 [Selumetinib] (first compound max 1 µM, 7x7, partner max 3 µM) | 0.856 | 0.271 | 0.579 | 0.274 | 0.427 | 0.618 | 0.152 | 1 | 0.826 | 0.204 | 0.304 | 0.249 | 0.398 | 0.751 | 0.289 | 0.515 | 0.342 | 0.284 | 0.56 | 0.588
CC1(C)CCC(CN2CCN(c3ccc(C(=O)NS(=O)(=O)c4ccc(NCC5CCOCC5)c([N+](=O)[O-])c4)c(Oc4cnc5[nH]ccc5c4)c3)CC2)=C(c2ccc(Cl)cc2)C1 [Venetoclax] + C[C@@H](Nc1cc(F)cc(F)c1)c1cc(C(=O)N(C)C)cc2c(=O)cc(N3CCOCC3)oc12 [AZD8186] (first compound max 1 µM, 7x7, partner max 3 µM) | 0.422 | 0.95 | 0.0679 | 0.0996 | 0.32 | 0.137 | 0.288 | 0.225 | 0.343 | 0.569 | 0.141 | 0.293 | 0.314 | 0.617 | 0.587 | 0.225 | 0.806 | 0.087 | 0.701 | 0.08
CC1(C)CCC(CN2CCN(c3ccc(C(=O)NS(=O)(=O)c4ccc(NCC5CCOCC5)c([N+](=O)[O-])c4)c(Oc4cnc5[nH]ccc5c4)c3)CC2)=C(c2ccc(Cl)cc2)C1 [Venetoclax] + C[C@@H]1COCCN1C2=NC(=NC(=C2)C3(CC3)[S@](=N)(=O)C)C4=C5C=CNC5=NC=C4 [AZD6738] (first compound max 1 µM, 7x7, partner max 10 µM) | 0.883 | 0.959 | 0.29 | 0.508 | 0.334 | 0.809 | 0.36 | 0.382 | 0.736 | 0.999 | 0.875 | 0.476 | 0.593 | 0.976 | 0.929 | 0.436 | 0.697 | 0.722 | 0.771 | 0.53
Cc1c2c(nn1C)CSCc1cc(n(C)n1)CSc1cc(c3ccccc3c1)OCCCc1c(C(=O)O)n(C)c3c-2c(Cl)ccc13 [AZD5991] + C1CN(CCC1(C(=O)N[C@@H](CCO)C2=CC=C(C=C2)Cl)N)C3=NC=NC4=C3C=CN4 [Capivasertib] (first compound max 1 µM, 7x7, partner max 3 µM) | 0.847 | 0.725 | 0.427 | 0.405 | 0.438 | 0.442 | 0.201 | 1 | 0.362 | 0.256 | 0.252 | 0.426 | 0.356 | 0.858 | 0.566 | 0.401 | 0.604 | 0.21 | 0.911 | 0.129
CC1(C)CCC(CN2CCN(c3ccc(C(=O)NS(=O)(=O)c4ccc(NCC5CCOCC5)c([N+](=O)[O-])c4)c(Oc4cnc5[nH]ccc5c4)c3)CC2)=C(c2ccc(Cl)cc2)C1 [Venetoclax] + CN(C)CCCOc1ccc(-c2ccc3ncc4c(c3c2)n(C2CCOCC2)c(=O)n4C)cn1 [AZD0156] (first compound max 1 µM, 7x7, partner max 1 µM) | 0.407 | 0.944 | 0.146 | 0.0967 | 0.289 | 0.44 | 0.168 | 0.234 | 0.118 | 0.528 | 0.195 | 0.306 | 0.167 | 0.278 | 0.142 | 0.0954 | 0.334 | 0.167 | 0.685 | 0.149
CCN(CCO)CCCOc1ccc2c(Nc3cc(CC(=O)Nc4cccc(F)c4)[nH]n3)ncnc2c1 [AZD2811] + O=C(c1cc(Cc2n[nH]c(=O)c3ccccc23)ccc1F)N1CCN(C(=O)C2CC2)CC1 [Olaparib] (first compound max 1 µM, 7x7, partner max 10 µM) | 0.519 | 0.361 | 0.181 | 0 | 0.328 | 0.181 | 0.144 | 0.214 | 0.149 | 0.541 | 0.214 | 0.268 | 0.271 | 0.595 | 0.513 | 0.367 | 0.202 | 0.0806 | 0.328 | 0.163
CN(C)CCCOc1ccc(-c2ccc3ncc4c(c3c2)n(C2CCOCC2)c(=O)n4C)cn1 [AZD0156] + CCN(CCO)CCCOc1ccc2c(Nc3cc(CC(=O)Nc4cccc(F)c4)[nH]n3)ncnc2c1 [AZD2811] (first compound max 1 µM, 7x7, partner max 1 µM) | 0.506 | 0.403 | 0.148 | 0.0581 | 0.161 | 0.0911 | 0.0531 | 0.208 | 0.137 | 0.486 | 0.142 | 0.384 | 0.193 | 0.808 | 0.25 | 0.45 | 0.287 | 0.0631 | 0.193 | 0.0658
COc1nnc2ccc(N3CCC(c4ccc(OCCN5CCN(C)C(=O)[C@H]5C)cc4)CC3)nn12 [AZD5153] + Cc1c2c(nn1C)CSCc1cc(n(C)n1)CSc1cc(c3ccccc3c1)OCCCc1c(C(=O)O)n(C)c3c-2c(Cl)ccc13 [AZD5991] (first compound max 1 µM, 7x7, partner max 1 µM) | 0.966 | 0.759 | 0.8 | 0.778 | 0.6 | 0.612 | 0.293 | 1 | 0.917 | 0.449 | 0.842 | 0.372 | 0.417 | 0.967 | 0.76 | 0.817 | 0.343 | 0.611 | 0.817 | 0.453
